Results reported in patent US20250170132A1, “SALTS AND POLYMORPHIC FORMS OF MENIN INHIBITORS AND PHARMACEUTICAL COMPOSITIONS THEREOF” (Syndax Pharmaceuticals, Inc., priority 2023, published 2025).
Where two headings read alike, the source gives them in different places.

Key:
[1] = biological target: T1, menin (Homo sapiens, UniProt O00255); test: Binding to the MLL1 binding pocket on menin
T1 sequence (O00255 1-610): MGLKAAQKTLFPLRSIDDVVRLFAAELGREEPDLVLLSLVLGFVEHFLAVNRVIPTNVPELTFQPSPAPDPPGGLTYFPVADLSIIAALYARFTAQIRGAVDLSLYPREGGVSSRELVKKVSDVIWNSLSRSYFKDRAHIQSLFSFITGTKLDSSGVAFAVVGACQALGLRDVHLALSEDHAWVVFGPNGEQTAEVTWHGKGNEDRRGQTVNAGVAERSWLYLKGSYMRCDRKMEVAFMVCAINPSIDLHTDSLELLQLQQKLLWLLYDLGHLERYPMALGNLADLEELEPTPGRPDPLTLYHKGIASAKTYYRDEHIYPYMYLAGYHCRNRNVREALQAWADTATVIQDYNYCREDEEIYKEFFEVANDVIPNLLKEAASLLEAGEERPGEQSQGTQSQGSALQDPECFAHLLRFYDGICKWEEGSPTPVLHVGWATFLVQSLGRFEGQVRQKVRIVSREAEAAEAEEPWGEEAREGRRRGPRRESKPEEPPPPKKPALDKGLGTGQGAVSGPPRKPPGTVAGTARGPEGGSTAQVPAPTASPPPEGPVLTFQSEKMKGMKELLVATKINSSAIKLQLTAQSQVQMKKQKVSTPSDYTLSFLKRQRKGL
Excerpt: (§1) Menin inhibitor (e.g., Compound A or a pharmaceutically acceptable salt thereof) disrupts the interaction between menin and the MLL1 fusion proteins which is required for leukemogenic activity, thus impairing expression of critical oncogenes, causing growth arrest and the inhibition of cellular proliferation. Small molecule inhibitors of the menin-MLL interaction have been reported.

[2] = tested on: cells harboring MLLr fusions; test: Activity in cells harboring MLLr fusions; format: cell-based
Excerpt: as §1

[3] = Excipient compatibility study with Compound A monocitrate monohydrate; format: physicochemical
Description: The list of excipients for this study was restricted to those already being used in the tablet formulation provided in Example 7. OpaDry Orange was further added.
Binary mixtures of Compound A monocitrate monohydrate and each excipient, were placed in closed 20 mL borosilicate glass vials (Tables 45-47). The vials were stored at 25° C./60% RH, 30° C./65% RH, and 40° C./75% RH over 8 weeks and later analyzed using methods for Appearance, Compound A Assay, Related Substances, XRPD, and Differential Scanning calorimetry (DSC).

[4] = Aqueous solubility of Compound A salts; format: physicochemical; settings: across the physiological pH range
Description: Solubility of Compound A citrate was determined in 3 different types of matrices: unbuffered water, citrate-buffered solutions from pH 3 to 6, and formulations consisting of citrate, advantame, methylparaben sodium, potassium sorbate, and sodium chloride at pH ranging from 3 to 6. Solubility in unbuffered water at ambient temperature was 38.5 mg/mL.
The target pH was reassessed when the F3 formulation was developed. Compound A citrate solubility studies were performed initially in simple buffered solutions to assess solubility trends as a function of pH. […] The target concentration of Compound A was therefore changed to 40 mg/mL as a compromise between drug substance and preservatives dissolution rate and stability.

[5] = Pharmacokinetics in patients with relapsed or refractory acute leukemia; format: in vivo, human; settings: for Tmax: read-out: Tmax Median; for AUC(0-t): read-out: AUC0-12 h
Excerpt: The pharmacokinetics of Compound A were characterized in patients with relapsed or refractory acute leukemia following single and multiple oral administration of Compound A with or without strong CYP3A4 inhibitors. Steady-state pharmacokinetic parameters are presented as geometric mean [geometric coefficient of variation (% CV)] unless otherwise specified.

[6] = biological target: T2, CYP3A4 (Homo sapiens, UniProt P08684); test: Drug interaction studies (clinical studies); format: in vivo; settings: for AUC increase / Cmax increase: multiple doses
T2 construct: from tissue
Excerpt: Strong CYP3A4 Inhibitors: Compound A AUC and Cmax is increased by 2-fold following concomitant use of multiple doses of Compound A with certain azole antifungals that are strong CYP3A4 inhibitors (i.e., posaconazole, itraconazole, and voriconazole).

[7] = Polymorph screening of Compound A citrate salt, form conversion (XRPD, DSC/TGA, DVS); format: physicochemical; settings: drying of wet cake (Form B); presence of water (Form C)
[8] = Form C water activity study in MeCN/water; format: physicochemical
Description: Water activity study in MeCN/water: A water activity investigation was conducted utilizing a MeCN/water system. […] Subsequently, Form A seeds were introduced into vials with water activities between 0.01 and 0.6. […] The solids were isolated and subjected to vacuum drying at room temperature overnight.

[9] = Form C slurry conditioning in EtOH/water (95/5); format: physicochemical
[10] = Form C screening experiments; format: physicochemical; settings: Exp. 16: 40 mg in water 0.1 mL, RT; CL → HSL
[11] = Form C characterization and relative stability of the forms; format: physicochemical
Description: Moreover, HNMR studies validated a 1:1 stoichiometry between the freebase and acid.

[12] = Slurry and solvent evaporation polymorph experiments of Compound A citrate salt (Table 9); format: physicochemical; settings: dried solid, upon exposure to humidity
Description: Based on the approximate solubility data of Compound A citrate salt, 18 polymorph experiments were started at RT with stirring (Table 9). Wet cakes from the slurry experiments were analyzed after 5 days of stirring. Wet cake XRPD patterns were checked and materials showing no pattern change were heated from RT to 50° C.
Procedure • 1) Slurry at RT: ˜35 mg citrate salt was slurried in different solvents in 4 mL vials using a magnetic stirrer at RT. The solids in slurry were characterized by XRPD after 3-5 days. • 2) Slurry at 50° C.: Slurries with no change in wet cake XRPD pattern when compared to starting material were heated from RT to 50° C. Samples were analyzed after 2-3 days of stirring.
Wet cake samples were isolated and kept at 25° C. for 2 h for drying. After drying, samples were analyzed by XRPD.

[13] = tested on: NPM1c mutant AML patient-derived xenograft models; settings: orally active menin inhibitor; cited from earlier work
[14] = tested on: NPM1c cells; settings: cited from earlier work
[15] = 2 pediatric patients, 160 mg/m^2 without strong CYP3A4 inhibitors
[16] = human, plasma, oral, 163 mg twice daily with strong CYP3A4 inhibitors, steady-state, geometric mean
[17] = human, plasma, oral, 276 mg twice daily without strong CYP3A4 inhibitors, steady-state, geometric mean
[18] = low fat meal, approximately 400-500 calories, 25% of calories from fat
[19] = single dose of radiolabeled Compound A 276 mg, adult patients
[20] = with cobicistat (strong CYP3A4 inhibitor)
[21] = with strong CYP3A4 inhibitor azole antifungals (posaconazole, itraconazole, voriconazole)

T2 sequence (P08684 whole entry): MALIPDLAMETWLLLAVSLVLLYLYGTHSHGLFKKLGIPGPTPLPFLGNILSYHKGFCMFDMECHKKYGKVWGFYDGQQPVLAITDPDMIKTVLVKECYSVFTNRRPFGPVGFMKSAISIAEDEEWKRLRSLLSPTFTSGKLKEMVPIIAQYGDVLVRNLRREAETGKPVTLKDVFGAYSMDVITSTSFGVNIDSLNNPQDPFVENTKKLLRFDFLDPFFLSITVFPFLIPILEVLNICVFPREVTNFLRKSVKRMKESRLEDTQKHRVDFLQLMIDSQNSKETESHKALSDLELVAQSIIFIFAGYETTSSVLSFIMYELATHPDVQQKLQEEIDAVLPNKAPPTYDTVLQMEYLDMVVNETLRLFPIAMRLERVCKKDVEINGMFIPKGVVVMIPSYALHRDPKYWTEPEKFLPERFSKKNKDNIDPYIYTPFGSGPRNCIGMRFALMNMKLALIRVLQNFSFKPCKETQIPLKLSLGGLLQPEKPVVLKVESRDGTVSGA

## CCN(C(=O)c1cc(F)ccc1Oc1cncnc1N1CC2(CCN(C[C@H]3CC[C@H](NS(=O)(=O)CC)CC3)CC2)C1)C(C)C [Compound A, trans N-ethyl-2-((4-(7-((4-(ethylsulfonamido)cyclohexyl)methyl)-2,7-diazaspiro[3.5]nonan-2-yl)pyrimidin-5-yl)oxy)-5-fluoro-N-isopropylbenzamide]
[1]
  binding affinity to the MLL1 binding pocket on menin: high affinity
[2]
  activity in cells harboring MLLr fusions: displays activity across a range of cells harboring MLLr fusions
[3]; 8 week, 25° C./60% RH closed
  Assay (%) Results: 100.3%
[3]; 8 week, 30° C./65% RH closed
  Assay (%) Results: 101.4%
[3]; 8 week, 40° C./75% RH closed
  Assay (%) Results: 100.0%
[3]; Initial (t = 0), closed glass vials
  Assay (%) Results: 98.8%
[4]
  solubility: high solubility
[5]; 163 mg twice daily with strong CYP3A4 inhibitors, steady-state, geometric mean
  Apparent Clearance: 7 L/h
[5]; 276 mg twice daily without strong CYP3A4 inhibitors, steady-state, geometric mean
  Apparent Clearance: 27 L/h
[5]; [15]
  AUC0-tau, individual patients: 16300 ng·h/mL
  steady-state Cmax, individual patients: 4790 ng/mL
[5]; dosage range of 113 mg to 339 mg
  Dose Proportionality: Dose proportional increases in Cmax and AUC0-12 h
[5]; higher exposures with lower body weight and BSA
  Effect of body weight and BSA on pharmacokinetics: significant effect
[5]; human, in vivo
  Metabolism: Primary Pathway: CYP3A4
[5]; human, in vivo, independent of concentration, read-out: Protein Binding (converted)
  fraction unbound: 0.1
[5]; human, plasma, oral, 95 mg/m2, pediatric patients, 95 mg/m^2 with strong CYP3A4 inhibitors, read-out: steady-state AUC0-tau, geometric mean (geometric CV %)
  AUC: 14600 ng·h/mL
[5]; human, plasma, oral, 95 mg/m2, pediatric patients, 95 mg/m^2 with strong CYP3A4 inhibitors, read-out: steady-state Cmax, geometric mean (geometric CV %)
  Cmax: 3140 ng/mL
[5]; human, plasma, oral, 160 mg/m2, 2 pediatric patients, 160 mg/m^2 without strong CYP3A4 inhibitors, read-out: AUC0-tau, individual patients
  AUC: 25600 ng·h/mL
[5]; human, plasma, oral, 160 mg/m2, 2 pediatric patients, 160 mg/m^2 without strong CYP3A4 inhibitors, read-out: steady-state Cmax, individual patients
  Cmax: 4950 ng/mL
[5]; human, plasma, oral, 163 mg, 163 mg twice daily with strong CYP3A4 inhibitors, steady-state, geometric mean, patients, read-out: Cmax
  Cmax: 3220 ng/mL
[5]; human, plasma, oral, 276 mg, 276 mg twice daily without strong CYP3A4 inhibitors, steady-state, geometric mean, patients, read-out: Cmax
  Cmax: 2050 ng/mL
[5]; human, plasma, oral, 163 mg twice daily with strong CYP3A4 inhibitors
  Tmax: 2 h
[5]; [16]
  half-life: 7.5 h
  AUC(0-t): 22600 ng·h/mL
[5]; human, plasma, oral, 276 mg twice daily without strong CYP3A4 inhibitors
  Tmax: 1 h
[5]; [17]
  half-life: 3.6 h
  AUC(0-t): 10200 ng·h/mL
[5]; human, plasma, oral, steady-state, geometric mean (% CV), read-out: Apparent Volume of Distribution
  Vd: 78 L
[5]; [18]
  AUC decrease with low fat meal: 12%
  Cmax decrease with low fat meal: 27%
[5]; [19]
  Excretion in Feces: ~49%
  Excretion in Feces, unchanged: 7%
  Excretion in Urine: ~27%
  Excretion in Urine, unchanged: 7%
[5]; steady-state
  Accumulation: 2-fold
[5]; twice daily oral dosing, patients
  Time to Steady-State: 2 to 3 days
[6]; [20]
  AUC increase: 2.5 fold
  Cmax increase: 2.5 fold
[6]; with fluconazole (moderate CYP3A4 inhibitor)
  Differences in pharmacokinetics: No clinically significant differences
[6]; with isavuconazole (moderate CYP3A4 inhibitor)
  Differences in pharmacokinetics: No clinically significant differences
[6]; [21]
  AUC increase: 2 fold
  Cmax increase: 2 fold

## CCN(C(=O)c1cc(F)ccc1Oc1cncnc1N1CC2(CCN(CC3CCC(NS(=O)(=O)CC)CC3)CC2)C1)C(C)C.O=C(O)CC(O)(CC(=O)O)C(=O)O (stereo not drawn) [Form C]
[7]
  stability of polymorphic form / conversion: unstable and converts to Form A in presence of water
[8]; Exp. 1: Form C 40 mg, MeCN/water aw 0.01, RT, no Form A seed
  XRPD: Form C
[8]; Exp. 1a: MeCN/water aw 0.01, RT, Form A seed 20 mg added
  XRPD: Form C
[8]; Exp. 2: Form C 40 mg, MeCN/water aw 0.22, RT, no Form A seed
  XRPD: Form C
[8]; Exp. 2a: MeCN/water aw 0.22, RT, Form A seed 20 mg added
  XRPD: Form C
[8]; Exp. 3: Form C 40 mg, MeCN/water aw 0.41, RT, no Form A seed
  XRPD: Form C
[8]; Exp. 3a: MeCN/water aw 0.41, RT, Form A seed 20 mg added
  XRPD: Form C
[8]; Exp. 4: Form C 40 mg, MeCN/water aw 0.59, RT, no Form A seed
  XRPD: Form C
[8]; Exp. 4a: MeCN/water aw 0.59, RT, Form A seed 20 mg added
  XRPD: Form C
[8]; MeCN/water, water activities 0.01 to 0.6, overnight stirring
  Form (XRPD) after addition of Form A seeds: match with the Form C
[8]; MeCN/water, water activities 0.01 to 0.8, RT, overnight stirring
  Form stability (XRPD of wet cake): remained stable
[8]; water activity levels of 0.01-0.6
  Form (XRPD) of isolated vacuum-dried solids: consistent with Form C
[8]; water activity of 0.8
  Form (XRPD) of isolated vacuum-dried solids: combination of Form C and Form A
[9]; EtOH/water (95/5), overnight stirring
  Form conversion on slurry conditioning: converted to Form A
[9]; Exp. 1: Form C 40 mg, EtOH/water (95/5) 0.2, RT, no Form A seed, slurry overnight
  XRPD: Form A
[9]; Exp. 2: Form C, EtOH/water (95/5), RT, Form A seed 20 mg
  XRPD: Form A
[10]
  Crystal Form: Form A
[11]; heating to 110° C.
  XRPD profile after heating: aligned with that of Form C
[11]; overnight stirring in water at RT
  Solid recovered from water: Form A was recrystallized
[11]; post-vacuum drying at room temperature
  XRPD pattern after drying: remained unchanged
[11]; water and EtOH/water (95/5 v/v)
  Form conversion: transitions to Form A
[12]
  Form conversion: converts to Form A upon exposure to humidity

## CNc1nc(NC2CCN(Cc3ccc4c(cc(C#N)n4C[C@H](C)N4CCN(S(C)(=O)=O)CC4)c3C)CC2)c2cc(CC(F)(F)F)sc2n1 [KO-539]
[13]
  anti-leukemic activity: robust anti-leukemic activity

## Cc1c(CN2CCC(Nc3ncnc4sc(CC(F)(F)F)cc34)CC2)ccc2c1cc(C#N)n2Cc1cn[nH]c1 [MI-503]
[14]
  effect on HOXA/MEIS1 transcription program in NPM1c cells: suppress the HOXA/MEIS1 transcription program in NPM1c cells, leading to growth arrest, terminal differentiation and cell death
